According to patent US9642854B2, “Flavanoid compounds and process for preparation thereof” (Council of Scientific & Industrial Research, priority 2009, dated 2017):
In brackets after ≈: the same amount, converted by molar mass. Where two headings read alike, the source gives them in different places.

How the values were obtained:
H. pylori [1] = assay: Anti H. pylori screening by disc diffusion susceptibility assay; assay type: cell-based, Helicobacter pylori; conditions: 100 and 200 mg/disc (so in the source), 72 h
Experimental: (§1) The discs were impregnated with […] of each of the compounds, dissolved either in ethanol or DMSO, and the zone of inhibition was measured after 72 h of growth under microaerophilic conditions at 37° C. Inhibition zone diameter ranging 10-20 mm was given a score of ^+, 20-30 mm as ^++ and that of >30 mm as ^+++, as obtained employing dose range of […]/disc. The detailed structural information of the molecules is provided under ‘Description of the Compounds’.
(§2) Methods and protocols for the determination of inhibition zone diameter are as stated under Experiment 1, and that of MIC values by microbroth dilution assay as in Experiment 3. ‘Nil’ means zone of inhibition below 10 mm.
(§3) The anti H. pylori activity of all 16 flavonoid molecules, 2 naturally isolated and 14 synthetic derivatives, was screened by disc diffusion sensitivity assay employing 2 clinical strains HP001 and HP002, and three standard strains ATCC® 700392, 43504 and 49503. A 0.5 mL inoculum (10^8 CFU/mL) for each bacterial strain tested was flooded on freshly prepared Brain Heart Infusion (BHI) agar plates supplemented with 7% FCS, 0.5% IsoVitalex and 0.0025% DENT® and the discs (5 mm diameter) containing different compounds or antibiotics (dissolved either in ethanol or DMSO) were placed on the agar surface. After incubation for 3 days in a microaerophilic atmosphere at 37° C., the diameter of the zone of inhibition was measured (Glupczynsky, 1996; McNulty et al., 2002).

H. pylori [2] = assay: as above; assay type: cell-based, Helicobacter pylori; set-up: key: strongly active (3^+, diameter>30 mm); intermediate active (2^+, ˜20-30 mm diameter); moderately active (1^+, ˜10-20 mm diameter); not active (<10 mm diameter); conditions: two doses, majority of the strains
Experimental: as §1, §2, §3

H. pylori [3] = assay: as above; assay type: cell-based, Helicobacter pylori; set-up: key: strongly active (diameter>30 mm) and were given a score of 3^+; intermediate active (^˜20-30 mm diameter) and were given a score of 2^+; moderately active (^˜10-20 min diameter) and were given a score of 1^+; not active (>10 mm diameter); conditions: 100 and 200 μg/disc, majority of the strains
Experimental: as §1, §2, §3

H. pylori [4] = assay: Anti H. pylori spectrum (MIC) by agar dilution method; assay type: cell-based, Helicobacter pylori; conditions: for MIC50 / MIC: Helicobacter pylori; for MIC50: MIC against 50% of the strains of the panel, read-out: MIC50
Experimental: MIC was determined using agar dilution assay following the CLSI® guidelines. Six clinical isolates and four standard strains were used for this study. Five microlitre of freshly grown 3-day old culture (˜1×10^8 CFU/mL) was streaked in plates containing 2-fold serial dilution of the compounds ranging […], and incubated under microaerophilic condition at 37° C. After 72 h, the plates were inspected visually for absence of growth to assess the MIC values. The experiment was performed in duplicates. MIC50 is defined as the dose (μg/ml) required for killing 50% of the strains.
Plates contained two-fold serial dilutions of the compounds ranging from […]. Five microlitres of 3-day old freshly grown H. pylori culture (^˜10^8 CFU/mL) was inoculated onto drug-containing BHI agar plates supplemented with 7% FCS, 0.5% IsoVitalex and 0.0025% DENT®, which were then incubated for 3 days under microaerophilic condition at 37° C.

H. pylori [5] = assay: MIC and MBC by microbroth dilution assay; assay type: cell-based, Helicobacter pylori; conditions: Helicobacter pylori
Experimental: The compounds, serially diluted ([…]) in Muller Hinton broth containing 5% FCS, were incubated in 96-well microtitre plate containing fresh cultures of HP001 (˜5.5×10^6 CFU/mL) or ATCC® 43504 (2.65×10^6 CFU/ml) in a final volume of […]. After 72-h of incubation under microaerophilic condition at 37° C., […] of cultures wherein no growth had been detected were streaked on fresh brain heart infusion agar plates for MBC determination.
In microbroth dilution assay employing one clinical and one standard strain, both the bacteriostatic and the bactericidal values were determined for all four compounds as well as for clarithromycin (Table 4). Two-fold serial dilutions were prepared in 96-well microtitre plate containing a total volume of 0.1 mL Mueller Hinton broth supplemented with 5% FCS. A 3-day old liquid culture was diluted 10 times in Mueller Hinton broth and 0.1 mL of these cultures was inoculated into each well to give a final concentration of ˜10^6 CFU/mL. The plates were incubated for 3 days in a microaerophilic atmosphere at 37° C. Following incubation, the plates were examined visually, and the lowest concentration showing complete inhibition of growth was recorded as the MIC of the respective compound (Hachem et al., 1996). Aliquots (0.1 mL) of 72-h culture in which no growth had been detected were taken from the wells of the above microtitre plates and used to streak on fresh BHI agar plates.

H. pylori [6] = assay: Acid stability study (pH ~2.0, 2 h, then MIC/MBC by microbroth dilution); assay type: cell-based, Helicobacter pylori; conditions: Helicobacter pylori
Experimental: Details of experimental protocol are described under Experiment 7. MIC/MBC values were determined by microbroth dilution assay.
A 100 μL stock of CPP-1, NMC-1, NMC-2 and CPP-3 (1-2 mg/mL) was treated with 20-30 μL of 0.12 NHCl to bring the pH of the solution to ^˜2.0, and kept at 25° C. for 2 h (Funatogawa et al., 2004). Such acid-treated samples were then serially diluted (2 fold) with medium in 96-well microtitre plates to determine the MIC and the MBC values by microbroth dilution assay as detailed under Experiment 3.

H. pylori [7] = assay: Time kill kinetic analyses in biphasic culture; assay type: cell-based, Helicobacter pylori
[8] = target: T1, pig gastric H^+,K^+-ATPase (Sus scrofa, UniProt P19156); assay: Gastric H+,K+-ATPase activity assay; assay type: biochemical
T1 construct: tubulovesicular and apical membranes, isolated from freshly slaughtered pig gastric mucosa; from tissue; host or cells: pig gastric mucosa (membrane fraction by density gradient centrifugation)
T1 sequence (P19156 2-1034 limits assumed): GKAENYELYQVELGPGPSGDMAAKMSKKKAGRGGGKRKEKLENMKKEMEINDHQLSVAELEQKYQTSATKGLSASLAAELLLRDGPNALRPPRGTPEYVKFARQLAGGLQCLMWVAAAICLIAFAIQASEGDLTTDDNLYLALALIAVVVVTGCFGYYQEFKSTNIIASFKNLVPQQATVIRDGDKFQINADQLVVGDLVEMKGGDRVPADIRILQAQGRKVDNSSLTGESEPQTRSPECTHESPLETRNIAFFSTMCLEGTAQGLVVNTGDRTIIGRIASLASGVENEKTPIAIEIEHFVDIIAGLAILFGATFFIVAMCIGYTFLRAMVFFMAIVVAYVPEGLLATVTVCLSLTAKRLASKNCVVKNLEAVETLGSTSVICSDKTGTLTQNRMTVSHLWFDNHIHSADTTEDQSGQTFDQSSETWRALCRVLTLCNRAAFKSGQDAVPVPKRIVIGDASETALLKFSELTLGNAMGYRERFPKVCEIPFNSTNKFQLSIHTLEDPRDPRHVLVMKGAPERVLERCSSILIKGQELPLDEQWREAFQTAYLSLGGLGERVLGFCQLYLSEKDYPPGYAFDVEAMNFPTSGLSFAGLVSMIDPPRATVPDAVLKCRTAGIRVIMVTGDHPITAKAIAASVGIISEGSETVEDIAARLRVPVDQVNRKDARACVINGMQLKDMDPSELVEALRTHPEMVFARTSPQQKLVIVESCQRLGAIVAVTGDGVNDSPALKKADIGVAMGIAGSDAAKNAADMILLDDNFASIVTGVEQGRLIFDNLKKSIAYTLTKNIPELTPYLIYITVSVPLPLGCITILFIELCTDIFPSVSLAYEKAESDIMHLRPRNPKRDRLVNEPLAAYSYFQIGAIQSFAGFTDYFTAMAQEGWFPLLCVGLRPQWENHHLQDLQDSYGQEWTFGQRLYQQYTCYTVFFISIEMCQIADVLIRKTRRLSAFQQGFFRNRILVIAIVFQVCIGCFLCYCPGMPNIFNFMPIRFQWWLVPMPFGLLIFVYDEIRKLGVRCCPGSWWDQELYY
T1 sequence (P18434 whole entry partner): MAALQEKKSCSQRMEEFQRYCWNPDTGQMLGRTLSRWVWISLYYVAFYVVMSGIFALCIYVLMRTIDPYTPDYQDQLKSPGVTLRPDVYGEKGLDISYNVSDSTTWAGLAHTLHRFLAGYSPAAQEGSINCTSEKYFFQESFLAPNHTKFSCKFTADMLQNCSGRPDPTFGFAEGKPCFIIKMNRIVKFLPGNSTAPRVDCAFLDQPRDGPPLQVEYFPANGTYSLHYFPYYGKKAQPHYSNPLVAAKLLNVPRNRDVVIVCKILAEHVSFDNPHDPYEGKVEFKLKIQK
Experimental: The data are averages of 3-4 determinations each carried out in triplicate. The assay system contained 10 mM PIPES-Tris (pH 6.8), 2 mM each of ATP and MgCl2 with or without 10 mM KCl and about […] in a final volume of 1 mL. Both blank and experimental tubes with or without CPP-1 at different concentrations were preincubated with otherwise complete assay mixture at 37° C. for 10 min before initiating the reaction with the substrate ATP. K^+-stimulated activity referred to as H^+,K^+-ATPase activity, was calculated as the difference between the activity in presence of Mg^2+ plus K^+ and the basal activity (Mg^2+-ATPase) in presence of Mg2^+ alone. The specific activity of H^+,K^+-ATPase in control sets was in the range of 40-50 μmole Pi/mg protein/h.
The effect of CPP-1 on gastric H^+K^+-ATPase was investigated. Isolation of pig gastric mucosal membranes, rich in H^+,K^+-ATPase activity, was carried out by density gradient centrifugation technique (Ray, 1978). The enzyme assay system contained 10 mM PIPES-Tris (pH 6.8), 2 mM each of ATP and MgCl with or without 10 mM KCl and about […] in a final volume of 1 mL. Both blank and experimental tubes with or without CPP-1 at different concentrations were preincubated with otherwise complete assay mixture at 37° C. for 10 min before initiating the reaction with the substrate ATP. After appropriate time of incubation with ATP at 37° C., the reaction was terminated with the addition of 1 mL of ice-cold TCA (14%, w/v). The liberated inorganic phosphate (Pi) was estimated essentially by the method of Sanui (1974). K^+-stimulated activity referred to as H^+,K^+-ATPase activity, was calculated as the difference between the activity in presence of Mg^2+ plus K^+ and the basal activity (Mg^2+-ATPase) in presence of Mg^2+ alone. The specific activity of H^+,K^+-ATPase was expressed as micromoles of Pi liberated per hour per milligram protein. The data are averages of 3-4 determinations each carried out in triplicate. The specific activity of H^+,K^+-ATPase in control sets was in the range of 40-50 μmole Pi/mg protein/h.

[9] = ATCC43504, microbroth dilution, ATCC 43504

Compound: 4-methyl-benzoic acid 5-hydroxy-6-methoxy-4-oxo-2-phenyl-4-H-chromen-yl ester [ORPM-1]
- Inhibition zone diameter (score) (H. pylori [1]; ATCC standard strain 43504): Nil (‘Nil’ means zone of inhibition below 10 mm)
- Inhibition zone diameter (score) (H. pylori [1]; ATCC standard strain 49503): Nil (‘Nil’ means zone of inhibition below 10 mm)
- Inhibition zone diameter (score) (H. pylori [1]; ATCC standard strain 700392): Nil (‘Nil’ means zone of inhibition below 10 mm)
- Inhibition zone diameter (score) (H. pylori [1]; clinical strain HP001): + (Inhibition zone diameter ranging 10-20 mm was given a score of ^+)
- Inhibition zone diameter (score) (H. pylori [1]; clinical strain HP002): Nil (‘Nil’ means zone of inhibition below 10 mm)
- Activity class by inhibition zone diameter (H. pylori [2]): not active
- Activity class by inhibition zone diameter (H. pylori [3]): not active

Compound: CN1CCN(CCCOc2cc(O)c3c(=O)cc(-c4ccccc4)oc3c2)CC1 [NMC-2, 5-Hydroxy-7-[3-(4-methyl-piperazin-1-yl)-propoxy]-2-phenyl-chromen-4-one]
- Inhibition zone diameter (score) (H. pylori [1]; ATCC standard strain 43504): + (Inhibition zone diameter ranging 10-20 mm was given a score of ^+)
- Inhibition zone diameter (score) (H. pylori [1]; ATCC standard strain 49503): + (Inhibition zone diameter ranging 10-20 mm was given a score of ^+)
- Inhibition zone diameter (score) (H. pylori [1]; ATCC standard strain 700392): + (Inhibition zone diameter ranging 10-20 mm was given a score of ^+)
- Inhibition zone diameter (score) (H. pylori [1]; clinical strain HP001): + (Inhibition zone diameter ranging 10-20 mm was given a score of ^+)
- Inhibition zone diameter (score) (H. pylori [1]; clinical strain HP002): ++ (20-30 mm as ^++)
- MIC50 (H. pylori [4]; 72 h): ~12.5 µg/mL (≈ 31.7 µM)
- MIC (H. pylori [4]; 72 h, panel of 6 clinical isolates and 4 standard strains, read-out: MIC Range): 6.25 to 100 µg/mL (≈ 15.8 to 254 µM)
- MIC50 (H. pylori [4]): 12.5 µg/mL (≈ 31.7 µM)
- MIC (H. pylori [4]; clinical strain HP001, read-out: MIC): 12.5 µg/mL (≈ 31.7 µM)
- MIC (H. pylori [4]; clinical strain HP002, read-out: MIC): 6.25 µg/mL (≈ 15.8 µM)
- MIC (H. pylori [4]; clinical strain HP003, read-out: MIC): 12.5 µg/mL (≈ 31.7 µM)
- MIC (H. pylori [4]; clinical strain HP004, read-out: MIC): 12.5 µg/mL (≈ 31.7 µM)
- MIC (H. pylori [4]; clinical strain HP005, read-out: MIC): 6.25 µg/mL (≈ 15.8 µM)
- MIC (H. pylori [4]; clinical strain HP006, read-out: MIC): 12.5 µg/mL (≈ 31.7 µM)
- MIC (H. pylori [4]; standard strain 43504, read-out: MIC): 12.5 µg/mL (≈ 31.7 µM)
- MIC (H. pylori [4]; standard strain 43629, read-out: MIC): 25 µg/mL (≈ 63.4 µM)
- MIC (H. pylori [4]; standard strain 49503, read-out: MIC): 3.12 µg/mL (≈ 7.92 µM)
- MIC (H. pylori [4]; standard strain 700392, read-out: MIC): 12.5 µg/mL (≈ 31.7 µM)
- MIC Range (H. pylori [4]; panel of 6 clinical isolates and 4 standard strains): 3.125 to 12.5 µg/mL
- MBC (H. pylori [5]; [9]): 50 µg/mL (≈ 127 µM)
- MIC (H. pylori [5]; [9]): 12.5 µg/mL (≈ 31.7 µM)
- MBC (H. pylori [5]; microbroth dilution, HP001): 25 µg/mL (≈ 63.4 µM)
- MIC (H. pylori [5]; microbroth dilution, HP001): 12.5 µg/mL (≈ 31.7 µM)
- MBC (H. pylori [6]; 2 h, pH ~2.0, 2 h, 25° C., 43504, read-out: MBC, Acid treated): < 50000 µg/mL
- MIC (H. pylori [6]; 2 h, pH ~2.0, 2 h, 25° C., 43504, read-out: MIC, Acid treated): 25000 µg/mL (≈ 63400 µM)
- MBC (H. pylori [6]; 2 h, pH ~2.0, 2 h, 25° C., HP001, read-out: MBC, Acid treated): 50000 µg/mL (≈ 127000 µM)
- MIC (H. pylori [6]; 2 h, pH ~2.0, 2 h, 25° C., HP001, read-out: MIC, Acid treated): 25000 µg/mL (≈ 63400 µM)
- MBC (H. pylori [6]; not acid treated, 43504, read-out: MBC, Control): 50000 µg/mL (≈ 127000 µM)
- MIC (H. pylori [6]; not acid treated, 43504, read-out: MIC, Control): 12500 µg/mL (≈ 31700 µM)
- MBC (H. pylori [6]; not acid treated, HP001, read-out: MBC, Control): 25000 µg/mL (≈ 63400 µM)
- MIC (H. pylori [6]; not acid treated, HP001, read-out: MIC, Control): 12500 µg/mL (≈ 31700 µM)
- time to complete killing (H. pylori [7]; ATCC 43504, 2×MIC (clarithromycin 0.08, CPP-1 and NMC-1 12.5, NMC-2 and CPP-3 25 μg/mL)): ≤ 12 h
- killing at MIC dose (H. pylori [7]; ATCC 43504, MIC ([…])): could not produce complete killing
- time at which killing/inhibition became evident (H. pylori [7]; HP001, biphasic culture): > 9 h
- killing at MIC dose (1×MIC) (H. pylori [7]; HP001, up to 36 h): did not kill the bacteria completely even at 36 h

Compound: COc1ccc2[nH]c([S+]([O-])Cc3ncc(C)c(OC)c3C)nc2c1 (stereo not drawn) [Omeprazole, reference compound]
- Percent inhibition of H^+, K^+-ATPase activity ([8]; 1 mg/assay (so in the source)): 20%
- Percent inhibition of H^+, K^+-ATPase activity ([8]; 10 mg/assay (so in the source)): about 80%
- inhibition of H^+,K^+-ATPase ([8]; dose range of 1-10 μg/assay): 20-80%
